{"source": "ChEMBL document CHEMBL4177599", "about": "“The antitubercular activity of various nitro(triazole/imidazole)-based compounds” (Bioorg Med Chem, 2017)", "key": {"[1]": {"settings": "human, caco-2, 2 h, 10 µM", "description": "Apparent permeability of the compound across apical side to basolateral side in human Caco2 cells monolayer at 10 uM after 2 hrs by LC-MS/MS analysis"}, "[2]": {"tested_on": "HepG2", "assay": "Cytotoxicity against human HepG2 cells at 100 uM after 3 days by CellTiter-Glo luminescent cell viability assay", "type": "cell-based", "settings": "HepG2, 72 h"}, "[3]": {"tested_on": "Mycobacterium tuberculosis", "assay": "Bactericidal activity against Mycobacterium tuberculosis H37Rv ATCC 27294 assessed as concentration required for 2 log kill after 21 days under aerobic condition by colony forming assay", "type": "functional", "settings": "H37Rv ATCC 27294, 504 h"}, "[4]": {"settings": "human, caco-2, 2 h, 10 µM", "remark": "listed apart in the source", "description": "Apparent permeability of the compound across basolateral side to apical side in human Caco2 cells monolayer at 10 uM after 2 hrs by LC-MS/MS analysis"}, "[5]": {"tested_on": "Mycobacterium tuberculosis", "assay": "Antitubercular activity against Mycobacterium tuberculosis H37Rv ATCC 27294 after 5 days under aerobic condition", "type": "functional, organism-based", "settings": "H37Rv ATCC 27294, 120 h"}, "[6]": {"tested_on": "Mycobacterium tuberculosis", "assay": "Antitubercular activity against luxABCDE expressing Mycobacterium tuberculosis H37Rv infected in mouse J774 macrophages assessed as log reduction in bacterial colonies at 20 uM measured after 4 days under aerobic condition by luminescence assay", "type": "functional"}, "[7]": {"assay": "Protein binding in human plasma at 5 uM after 4 hrs by LC-MS/MS analysis"}, "[8]": {"tested_on": "Vero", "assay": "Cytotoxicity against African green monkey Vero cells after 2 days by CellTiter-Glo luminescent cell viability assay", "type": "ADME, cell-based", "settings": "Chlorocebus sabaeus, 48 h"}, "[9]": {"assay": "Half life in human liver S9 microsomes at 1 uM in presence of NADPH by LC-MS/MS analysis"}, "[10]": {"assay": "Half life in human liver S9 microsomes at 1 uM in absence of NADPH by LC-MS/MS analysis"}, "[11]": {"tested_on": "Mycobacterium tuberculosis", "assay": "Antitubercular activity against Mycobacterium tuberculosis H37Rv ATCC 27294 after 10 days under low oxygen condition followed by incubation under aerobic condition for 28 hrs by LORA", "type": "functional, organism-based"}, "[12]": {"tested_on": "Mycobacterium tuberculosis", "assay": "Antitubercular activity against luxABCDE expressing Mycobacterium tuberculosis H37Rv infected in human THP1 cells measured after 3 days by luminescence assay", "type": "functional, organism-based", "settings": "THP-1, 72 h"}, "[13]": {"tested_on": "Mycobacterium tuberculosis", "assay": "Antitubercular activity against luxABCDE expressing Mycobacterium tuberculosis H37Rv infected in mouse J774 macrophages assessed as log reduction in bacterial colonies at 30 uM measured after 4 days under aerobic condition by luminescence assay", "type": "functional"}, "[14]": {"tested_on": "Mycobacterium tuberculosis", "assay": "Antitubercular activity against luxABCDE expressing Mycobacterium tuberculosis H37Rv infected in mouse J774 macrophages assessed as log reduction in bacterial colonies at 2.6 uM measured after 4 days under aerobic condition by luminescence assay", "type": "functional"}, "[15]": {"assay": "Solubility of compound in Middlebrook 7H9 broth media at pH 6.4 at 200 uM after 90 mins by UV-VIS spectrophotometric method", "type": "physicochemical", "settings": "buffer, pH 6.4, 1.5 h"}, "[16]": {"tested_on": "Mycobacterium tuberculosis", "assay": "Antitubercular activity against luxABCDE expressing Mycobacterium tuberculosis H37Rv infected in mouse J774 macrophages assessed as log reduction in bacterial colonies at 10.9 uM measured after 4 days under aerobic condition by luminescence assay", "type": "functional"}, "[17]": {"tested_on": "Mycobacterium tuberculosis", "assay": "Potency index, ratio of compound MIC to metronidazole MIC for antitubercular activity against Mycobacterium tuberculosis H37Rv ATCC 27294 under low oxygen condition", "type": "functional"}}}
{"compound": "O=C(Cn1cnc([N+](=O)[O-])n1)Nc1nc(-c2ccc(F)c(F)c2)cs1", "values": [{"measurement": "Papp", "setting": "[1]", "value": 37.7, "unit": "×10⁻⁶ cm/s"}, {"measurement": "IC50", "setting": "[2]", "value": 78, "unit": "µM"}, {"measurement": "MBC", "setting": "[3]", "value": 20, "unit": "µM"}, {"measurement": "Papp", "setting": "[4]", "value": 19.9, "unit": "×10⁻⁶ cm/s"}, {"measurement": "IC50", "setting": "[5]", "value": 27, "unit": "µM"}, {"measurement": "IC90", "setting": "[5]", "value": 39, "unit": "µM"}, {"measurement": "MIC", "setting": "[5]", "value": 37, "unit": "µM"}, {"measurement": "log(activity)", "setting": "[6]", "value": 2.4}, {"measurement": "fraction unbound at 4 h, 5 µM", "setting": "[7]", "value": 0.002}, {"measurement": "IC50", "setting": "[8]", "value": 55, "unit": "µM"}, {"measurement": "half-life at 1 µM", "setting": "[9]", "value": "> 3", "unit": "h"}, {"measurement": "half-life at 1 µM", "setting": "[10]", "value": "> 3", "unit": "h"}, {"measurement": "IC50", "setting": "[11]", "value": 8.7, "unit": "µM"}, {"measurement": "IC90", "setting": "[11]", "value": 39, "unit": "µM"}, {"measurement": "MIC", "setting": "[11]", "value": "> 200", "unit": "µM"}]}
{"compound": "NNC(=O)c1ccncc1", "note": "[ISONIAZID]", "values": [{"measurement": "IC50", "setting": "[12]", "value": 0.19, "unit": "µM"}, {"measurement": "IC90", "setting": "[12]", "value": 0.24, "unit": "µM"}, {"measurement": "IC50", "setting": "[5]", "value": 0.131, "unit": "µM"}, {"measurement": "IC90", "setting": "[5]", "value": 0.2, "unit": "µM"}, {"measurement": "MIC", "setting": "[5]", "value": 0.313, "unit": "µM"}, {"measurement": "log(activity)", "setting": "[13]", "value": 2.7}, {"measurement": "log(activity)", "setting": "[14]", "value": 2.6}]}
{"compound": "O=C(NCCCCn1cnc([N+](=O)[O-])n1)c1nc2ccccc2s1", "values": [{"measurement": "solubility", "setting": "[15]", "value": "Soluble"}, {"measurement": "MBC", "setting": "[3]", "value": 10.9, "unit": "µM"}, {"measurement": "IC50", "setting": "[5]", "value": 4.9, "unit": "µM"}, {"measurement": "IC90", "setting": "[5]", "value": 7.4, "unit": "µM"}, {"measurement": "MIC", "setting": "[5]", "value": 6.7, "unit": "µM"}, {"measurement": "log(activity)", "setting": "[16]", "value": 2.4}, {"measurement": "IC50", "setting": "[8]", "value": "> 100", "unit": "µM"}, {"measurement": "Ratio", "setting": "[17]", "value": "6 - 9"}, {"measurement": "IC50", "setting": "[11]", "value": 26, "unit": "µM"}, {"measurement": "IC90", "setting": "[11]", "value": 29.2, "unit": "µM"}, {"measurement": "MIC", "setting": "[11]", "value": 23.4, "unit": "µM"}]}
